± gives the standard deviation of the averaged measurements.
Legend:
Assay in all cases: level (log10 ratio to DMSO vehicle control); higher = higher biomarker level / cell amount than vehicle control
[1] = compound: OCCCC(F)(F)C(F)(F)C(F)(F)C(F)(F)C(F)(F)C(F)(F)C(F)(F)F [7:3 Fluorotelomer alcohol]; conditions: 6700 nM; in DMSO
Description: (§1)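 BioMAP Diversity Plus panel of 12 human primary cell co-culture systems (3C, 4H, LPS, SAg, BT, BF4T, BE3C, CASM3C, HDF3CGF, KF3CT, MyoF, Mphg). Compounds were added 1 h before stimulation and left for 24 h (MyoF 48 h; BT 72 h for soluble read-outs or 6 d for IgG). Biomarkers were read by ELISA, cytotoxicity by SRB, PBMC viability and proliferation by Alamar Blue. Each well value was divided by the mean of 8 DMSO control wells on the same plate and log10 transformed; duplicate blinded samples were tested at 4 concentrations.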

Perfluoroheptanoic acid = compound: O=C(O)C(F)(F)C(F)(F)C(F)(F)C(F)(F)C(F)(F)C(F)(F)F [Perfluoroheptanoic acid]; conditions: in DMSO
Description: as §1

[2] = compound: CCN(CCO)S(=O)(=O)C(F)(F)C(F)(F)C(F)(F)C(F)(F)C(F)(F)C(F)(F)C(F)(F)C(F)(F)F [N-Ethyl-N-(2-hydroxyethyl)perfluorooctanesulfonamide]; conditions: in DMSO
Description: as §1

[3] = compound: O=C(O)C(F)(F)OC(F)(F)C(F)(F)OC(F)(F)C(=O)O [Perfluoro-3,6-dioxaoctane-1,8-dioic acid]; conditions: in DMSO
Description: as §1

[4] = compound: FC(F)(F)C(F)(F)C(F)(F)C(F)(F)C(F)(F)CCI [1-Iodo-1H,1H,2H,2H-perfluoroheptane]; conditions: in DMSO
Description: as §1

Perfluorobutanoic acid = compound: O=C(O)C(F)(F)C(F)(F)C(F)(F)F [Perfluorobutanoic acid]; conditions: in DMSO
Description: as §1

Perfluoro-1-iodohexane = compound: FC(F)(F)C(F)(F)C(F)(F)C(F)(F)C(F)(F)C(F)(F)I [Perfluoro-1-iodohexane]; conditions: in DMSO
Description: as §1

Test System | level (log10) [1] | level (log10) (Perfluoroheptanoic acid; 6700 nM) | level (log10) (Perfluoroheptanoic acid; 20000 nM) | level (log10) (Perfluoroheptanoic acid; 60000 nM) | level (log10) ([2]; 6700 nM) | level (log10) ([2]; 20000 nM) | level (log10) ([3]; 6700 nM) | level (log10) ([3]; 20000 nM) | level (log10) ([3]; 60000 nM) | level (log10) ([4]; 6700 nM) | level (log10) ([4]; 20000 nM) | level (log10) ([4]; 60000 nM) | level (log10) (Perfluorobutanoic acid; 6700 nM) | level (log10) (Perfluorobutanoic acid; 20000 nM) | level (log10) (Perfluorobutanoic acid; 60000 nM) | level (log10) (Perfluoro-1-iodohexane; 6700 nM) | level (log10) (Perfluoro-1-iodohexane; 20000 nM) | level (log10) (Perfluoro-1-iodohexane; 60000 nM)
BE3C:HLA-DR | 0.0045 ± 0.029 | -0.009 ± 0.0014 | -0.004 ± 0.0014 | 0.002 ± 0.027 | -0.0445 ± 0.013 | -0.115 ± 0.031 | -0.0025 ± 0.00071 | -0.02 ± 0.013 | 0.0085 ± 0.025 | -0.0055 ± 0.0035 | -0.0105 ± 0.0035 | -0.0215 ± 0.0078 | -0.0085 ± 0.018 | 0.007 ± 0.0014 | -0.027 ± 0.013 | -0.003 ± 0.0028 | 0.003 ± 0.0057 | -0.009 ± 0.0028
3C:SRB | -0.005 ± 0.0028 | -0.0065 ± 0.0078 | 0.005 ± 0.0085 | -0.0255 ± 0.0035 | -0.0815 ± 0.021 | -0.217 ± 0.011 | 0.0055 ± 0.0064 | -0.0055 ± 0.016 | -0.004 ± 0.0014 | 0.006 ± 0.013 | -0.019 ± 0.0042 | -0.0175 ± 0.013 | -0.021 ± 0.027 | -0.017 ± 0.013 | -0.0085 ± 0.0035 | -0.0035 ± 0.00071 | -0.0155 ± 0.00071 | -0.0155 ± 0.0021
BF4T:uPA | -0.011 ± 0.0057 | -0.017 ± 0.0057 | -0.0115 ± 0.012 | 0.009 ± 0.0085 | 0.008 ± 0.0028 | 0.0055 ± 0.012 | -0.007 ± 0.013 | -0.015 ± 0.0028 | 0.0035 ± 0.03 | 0.0125 ± 0.033 | 0.005 ± 0.0071 | 0.0135 ± 0.0064 | -0.005 ± 0.0071 | -0.011 ± 0.021 | -0.0025 ± 0.005 | -0.0075 ± 0.013 | -0.016 ± 0.024 | -0.0165 ± 0.0035
3C:HLA-DR | -0.002 ± 0.0057 | 0.006 ± 0.017 | 0.004 ± 0.013 | 0.034 ± 0.047 | 0.013 ± 0.025 | -0.0625 ± 0.016 | 0.008 ± 0.018 | -0.037 ± 0.013 | -0.0065 ± 0.012 | -0.001 ± 0.016 | 0.006 ± 0.0042 | -0.0035 ± 0.0064 | -0.0035 ± 0.028 | -0.0215 ± 0.00071 | -0.0115 ± 0.021 | 0.0025 ± 0.0035 | -0.011 ± 0.0057 | -0.001 ± 0.017
LPS:SRB | -0.002 | -0.019 ± 0.0085 | 0.001 ± 0.0028 | -0.019 ± 0.0099 | -0.0345 ± 0.0035 | -0.084 ± 0.02 | 0.007 ± 0.011 | 0.005 ± 0.021 | 0.0115 ± 0.025 | -0.006 ± 0.0014 | -0.009 ± 0.014 | -0.005 ± 0.0071 | -0.006 ± 0.028 | -0.013 ± 0.0071 | -0.001 ± 0.0099 | -0.0025 ± 0.0064 | -0.0055 ± 0.0064 | -0.0085 ± 0.00071
BF4T:PAI-I | -0.0105 ± 0.005 | -0.0045 ± 0.019 | 0.0005 ± 0.025 | 0.0015 ± 0.028 | 0.014 ± 0.0014 | -0.0105 ± 0.00071 | 0.0085 ± 0.013 | 0.007 ± 0.0099 | 0.0095 ± 0.012 | 0.012 ± 0.014 | 0.005 ± 0.0014 | 0.0135 ± 0.016 | -0.003 ± 0.0057 | -0.0115 ± 0.0064 | 0.0025 ± 0.023 | -0.0095 ± 0.0035 | -0.02 ± 0.0042 | -0.006 ± 0.018
LPS:IL-1alpha | -0.0615 ± 0.013 | -0.002 ± 0.0057 | -0.0265 ± 0.0078 | 0.006 ± 0.047 | -0.098 ± 0.013 | -0.141 ± 0.026 | -0.032 ± 0.013 | -0.0125 ± 0.013 | 0.0195 ± 0.049 | 0.023 ± 0.033 | 0.0055 ± 0.022 | 0.0205 ± 0.0064 | -0.0225 ± 0.032 | -0.0305 ± 0.019 | -0.0035 ± 0.016 | -0.048 ± 0.035 | -0.042 ± 0.021 | -0.004 ± 0.0014
4H:CD87/uPAR | 0.0105 ± 0.015 | 0.0355 ± 0.042 | -0.007 ± 0.054 | 0.061 ± 0.14 | -0.037 ± 0.037 | -0.088 ± 0.024 | -0.0095 ± 0.032 | -0.009 ± 0.037 | 0.001 ± 0.011 | 0.0265 ± 0.018 | 0.0175 ± 0.005 | 0.025 ± 0.03 | -0.013 ± 0.0071 | -0.0125 ± 0.029 | -0.041 ± 0.0071 | -0.0035 ± 0.053 | 0.017 ± 0.062 | 0.036 ± 0.12
BF4T:CCL26/Eotaxin-3 | -0.088 ± 0.17 | 0.0145 ± 0.019 | -0.0055 ± 0.013 | -0.031 ± 0.081 | 0.0905 ± 0.029 | 0.141 ± 0.0028 | -0.048 ± 0.059 | -0.037 ± 0.033 | 0.0145 ± 0.11 | -0.0135 ± 0.012 | -0.0315 ± 0.0092 | -0.17 ± 0.021 | -0.0225 ± 0.042 | 0.0075 ± 0.0021 | 0.008 ± 0.028 | 0.0255 ± 0.0035 | 0.0135 ± 0.015 | -0.0145 ± 0.059
BE3C:CXCL11/I-TAC | 0.022 ± 0.017 | 0.0065 ± 0.015 | -0.011 ± 0.0042 | -0.003 ± 0.0042 | -0.006 ± 0.023 | -0.0035 ± 0.029 | -0.0145 ± 0.0021 | -0.015 ± 0.0042 | -0.006 ± 0.013 | 0.0075 ± 0.013 | 0.0005 ± 0.016 | 0.0005 ± 0.018 | 0.007 ± 0.0099 | -0.003 ± 0.0014 | -0.0085 ± 0.015 | -0.0005 ± 0.0021 | 0.002 ± 0.0057 | 0.0175 ± 0.0092
4H:CCL2/MCP-1 | 0.025 ± 0.0099 | -0.0115 ± 0.0064 | -0.0165 ± 0.013 | 0.025 ± 0.024 | -0.007 ± 0.0099 | -0.159 ± 0.044 | 0.003 ± 0.041 | -0.032 ± 0.018 | 0.0205 ± 0.0035 | 0.005 | -0.0045 ± 0.029 | 0.0325 ± 0.035 | -0.0185 ± 0.012 | -0.05 ± 0.028 | 0.0005 ± 0.079 | 0.0085 ± 0.015 | -0.008 ± 0.0028 | 0.0145 ± 0.029
BE3C:CXCL10/IP-10 | 0.011 ± 0.024 | 0.0055 ± 0.022 | 0.0065 ± 0.0092 | 0.0045 ± 0.011 | -0.051 ± 0.0028 | -0.141 ± 0.028 | -0.003 ± 0.0057 | 0 ± 0.0014 | 0.005 ± 0.013 | 0.018 ± 0.052 | 0.022 ± 0.033 | 0.004 ± 0.052 | 0.0065 ± 0.00071 | -0.001 ± 0.011 | 0.0085 ± 0.0078 | 0.013 ± 0.018 | 0.0135 ± 0.0078 | 0.0355 ± 0.022
4H:CCL26/Eotaxin-3 | 0.005 ± 0.014 | 0.0055 ± 0.0064 | 0.0045 ± 0.0092 | -0.015 ± 0.0085 | 0.077 ± 0.031 | -0.143 ± 0.14 | 0.0045 ± 0.022 | 0.017 ± 0.021 | 0.0085 ± 0.0092 | 0.007 ± 0.017 | 0 ± 0.014 | -0.009 | -0.0135 ± 0.016 | -0.007 ± 0.024 | 0.015 ± 0.018 | 0.014 ± 0.013 | 0.016 ± 0.017 | 0.016 ± 0.021
BE3C:CD54/ICAM-1 | -0.0125 ± 0.00071 | -0.007 ± 0.0071 | -0.023 ± 0.0028 | -0.0055 ± 0.022 | 0.0705 ± 0.033 | 0.0555 ± 0.013 | -0.003 ± 0.021 | -0.0035 ± 0.0092 | 0.002 ± 0.038 | 0 ± 0.013 | -0.016 ± 0.011 | 0.006 ± 0.02 | -0.0015 ± 0.023 | -0.0165 ± 0.0092 | 0.011 ± 0.025 | -0.006 ± 0.0014 | -0.0125 ± 0.015 | -0.005 ± 0.014
